Data reported in US20100291247A1, “OIL FORMULATIONS AND METHODS OF USE” (priority 2007, published 2010).

Assay: LC50 of vanillin MEC formulation (pathogen not named)
Type: in vivo
Conditions: ppm of Vanillin, applied as 15% MEC formulation; organism not given
Text: The unit commonly used in the art to determine the effectiveness of the antipathogenic formulation is LC50. This number represents the concentration of formulation at which 50% of pathogens die.

COc1cc(C=O)ccc1O [Vanillin, 4-Hydroxy-3-Methoxybenzaldehyde]
LC50: 66 ppm
